Here are results for three compounds from ChEMBL document CHEMBL1201862, “PubChem BioAssay data set” (2004).

The target in test [1] is T1, Microphthalmia-associated transcription factor (Homo sapiens, UniProt O75030).
T1 sequence (O75030 whole entry): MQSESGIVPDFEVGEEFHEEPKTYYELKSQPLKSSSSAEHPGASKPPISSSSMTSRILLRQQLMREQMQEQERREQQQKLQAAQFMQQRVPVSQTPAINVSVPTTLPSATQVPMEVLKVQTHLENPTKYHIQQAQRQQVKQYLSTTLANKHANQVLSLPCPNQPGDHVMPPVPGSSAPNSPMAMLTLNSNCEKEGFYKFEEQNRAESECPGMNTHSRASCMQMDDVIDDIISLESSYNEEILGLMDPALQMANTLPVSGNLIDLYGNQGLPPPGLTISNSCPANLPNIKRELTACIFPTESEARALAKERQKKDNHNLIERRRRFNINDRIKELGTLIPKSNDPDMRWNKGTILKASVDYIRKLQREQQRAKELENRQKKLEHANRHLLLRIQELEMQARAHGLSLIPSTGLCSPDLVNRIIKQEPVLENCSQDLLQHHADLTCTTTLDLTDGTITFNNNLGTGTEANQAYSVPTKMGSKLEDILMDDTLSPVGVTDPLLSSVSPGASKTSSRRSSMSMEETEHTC
Nature of the test: reducers of TRPM1 reporter luminescence, concentration series – cell-based, SK-MEL-5, cherry-picked, set 3, MITF inhibitor project, dose response (AID 493073).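 Further: SK-MEL-5 melanoma cells with luciferase driven by the MITF target TRPM1 promoter.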 The format is functional.

Test [2] addresses T2, Replicative DNA helicase DnaB (Mycobacterium tuberculosis, UniProt P9WMR3).
T2 sequence (P9WMR3 whole entry): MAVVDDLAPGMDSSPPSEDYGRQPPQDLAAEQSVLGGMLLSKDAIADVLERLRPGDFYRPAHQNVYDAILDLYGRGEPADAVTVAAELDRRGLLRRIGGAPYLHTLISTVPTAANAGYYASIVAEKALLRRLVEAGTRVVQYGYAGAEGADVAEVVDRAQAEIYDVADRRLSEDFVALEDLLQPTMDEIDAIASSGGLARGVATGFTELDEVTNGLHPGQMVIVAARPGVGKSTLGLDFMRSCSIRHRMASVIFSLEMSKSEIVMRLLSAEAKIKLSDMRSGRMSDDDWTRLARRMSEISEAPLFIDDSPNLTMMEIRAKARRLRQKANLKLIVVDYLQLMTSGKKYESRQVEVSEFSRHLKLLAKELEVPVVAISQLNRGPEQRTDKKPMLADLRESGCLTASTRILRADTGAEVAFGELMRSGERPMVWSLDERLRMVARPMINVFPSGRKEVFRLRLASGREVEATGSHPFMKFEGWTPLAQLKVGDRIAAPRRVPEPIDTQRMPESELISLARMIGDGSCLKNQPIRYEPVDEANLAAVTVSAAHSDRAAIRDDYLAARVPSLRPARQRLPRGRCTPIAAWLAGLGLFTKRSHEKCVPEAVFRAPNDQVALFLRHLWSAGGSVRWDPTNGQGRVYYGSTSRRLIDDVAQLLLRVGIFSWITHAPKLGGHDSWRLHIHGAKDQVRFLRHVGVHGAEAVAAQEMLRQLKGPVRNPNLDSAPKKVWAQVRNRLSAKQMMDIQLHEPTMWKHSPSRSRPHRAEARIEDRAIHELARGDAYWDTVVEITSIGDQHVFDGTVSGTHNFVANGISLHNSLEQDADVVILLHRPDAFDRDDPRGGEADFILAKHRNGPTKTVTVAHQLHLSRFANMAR
Nature of the test: DnaB intein splicing inhibitors, dose response, biochemical, cell-free fluorescence (AID 449749). The format is functional.

A further test has as its target T3, Protein RecA (Mycobacterium tuberculosis, UniProt P9WHJ3).
T3 sequence (P9WHJ3 whole entry): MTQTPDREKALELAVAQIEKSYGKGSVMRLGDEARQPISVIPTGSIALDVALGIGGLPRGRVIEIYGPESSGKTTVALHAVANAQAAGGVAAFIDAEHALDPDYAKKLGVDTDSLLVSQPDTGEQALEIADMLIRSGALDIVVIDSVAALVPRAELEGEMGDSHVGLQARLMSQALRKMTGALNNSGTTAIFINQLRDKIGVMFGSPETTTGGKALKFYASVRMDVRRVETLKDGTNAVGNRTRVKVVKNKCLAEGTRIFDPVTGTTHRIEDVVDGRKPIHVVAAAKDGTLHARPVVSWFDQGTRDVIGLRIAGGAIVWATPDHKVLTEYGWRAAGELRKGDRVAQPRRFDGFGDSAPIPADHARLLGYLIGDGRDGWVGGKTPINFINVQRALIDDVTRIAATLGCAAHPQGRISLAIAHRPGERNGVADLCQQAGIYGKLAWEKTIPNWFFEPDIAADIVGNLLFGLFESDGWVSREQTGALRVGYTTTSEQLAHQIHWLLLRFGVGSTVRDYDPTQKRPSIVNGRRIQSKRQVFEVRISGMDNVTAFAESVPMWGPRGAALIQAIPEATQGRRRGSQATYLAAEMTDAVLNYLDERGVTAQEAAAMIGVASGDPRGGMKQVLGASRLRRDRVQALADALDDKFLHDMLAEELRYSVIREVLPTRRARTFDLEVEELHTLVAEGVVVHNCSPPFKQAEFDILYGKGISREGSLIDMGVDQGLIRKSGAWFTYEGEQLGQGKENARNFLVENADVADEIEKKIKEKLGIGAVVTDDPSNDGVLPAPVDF
The test can be described thus: Fluorescence Cell-Free Homogeneous Dose Retest to Identify Inhibitors of RecA-Intein Splicing Activity. [Related pubchem assays (depositor defined):AID2097, AID2223, AID489010, AID492950]. The format is functional.

The subject of test [3] is A-375. Nature of the test: MITF: Counter assay: A375 proliferation Measured in Cell-Based System Using Plate Reader - 2084-03_Inhibitor_Dose_DryPowder_Activity. [Related pubchem assays (depositor defined):AID488944]. The format is functional. To be noted: Homo sapiens.
The test system of test [4] is A-375. The test can be described thus: proliferation inhibition in MITF-low A375 cells – cell-based, cherry-pick samples, set 2, counter-screen for MITF modulator project, dose response (AID 540335). The format is functional. The conditions noted are these: Homo sapiens.
For the next test, the system named is HeLa. The test can be described thus: viability loss in HeLa cells – cell-based, 24 h, cherry-picked samples, cytotoxicity control, dose response (AID 504726).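 Further: potency for cytotoxicity as loss of luminescence signal.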 The format is functional. To be noted: Homo sapiens.
For test [5], the target named is UDP-galactopyranose mutase (Mycobacterium tuberculosis, UniProt P9WIQ1). The test can be described thus: Inhibitors of Mycobacterium tuberculosis UDP-galactopyranose mutase (UGM) enzyme Measured in Biochemical System Using Plate Reader - 2105-02_Inhibitor_Dose_CherryPick_Activity. [Related pubchem assays (depositor defined):AID504439].
Sequence of UDP-galactopyranose mutase (P9WIQ1 whole entry): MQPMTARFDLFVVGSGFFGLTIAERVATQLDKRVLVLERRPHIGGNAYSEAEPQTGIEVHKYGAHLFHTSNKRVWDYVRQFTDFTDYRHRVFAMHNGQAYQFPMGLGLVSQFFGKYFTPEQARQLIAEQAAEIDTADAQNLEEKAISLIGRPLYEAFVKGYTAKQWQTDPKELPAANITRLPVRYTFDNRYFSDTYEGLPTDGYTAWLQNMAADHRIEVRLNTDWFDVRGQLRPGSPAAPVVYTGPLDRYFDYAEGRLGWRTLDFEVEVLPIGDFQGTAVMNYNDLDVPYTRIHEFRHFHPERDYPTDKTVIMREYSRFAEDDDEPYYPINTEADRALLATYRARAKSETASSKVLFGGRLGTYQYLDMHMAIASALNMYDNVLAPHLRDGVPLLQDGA
Test [6] concerns the target T4, Insulin-degrading enzyme (Homo sapiens, UniProt P14735).
T4 sequence (P14735 whole entry): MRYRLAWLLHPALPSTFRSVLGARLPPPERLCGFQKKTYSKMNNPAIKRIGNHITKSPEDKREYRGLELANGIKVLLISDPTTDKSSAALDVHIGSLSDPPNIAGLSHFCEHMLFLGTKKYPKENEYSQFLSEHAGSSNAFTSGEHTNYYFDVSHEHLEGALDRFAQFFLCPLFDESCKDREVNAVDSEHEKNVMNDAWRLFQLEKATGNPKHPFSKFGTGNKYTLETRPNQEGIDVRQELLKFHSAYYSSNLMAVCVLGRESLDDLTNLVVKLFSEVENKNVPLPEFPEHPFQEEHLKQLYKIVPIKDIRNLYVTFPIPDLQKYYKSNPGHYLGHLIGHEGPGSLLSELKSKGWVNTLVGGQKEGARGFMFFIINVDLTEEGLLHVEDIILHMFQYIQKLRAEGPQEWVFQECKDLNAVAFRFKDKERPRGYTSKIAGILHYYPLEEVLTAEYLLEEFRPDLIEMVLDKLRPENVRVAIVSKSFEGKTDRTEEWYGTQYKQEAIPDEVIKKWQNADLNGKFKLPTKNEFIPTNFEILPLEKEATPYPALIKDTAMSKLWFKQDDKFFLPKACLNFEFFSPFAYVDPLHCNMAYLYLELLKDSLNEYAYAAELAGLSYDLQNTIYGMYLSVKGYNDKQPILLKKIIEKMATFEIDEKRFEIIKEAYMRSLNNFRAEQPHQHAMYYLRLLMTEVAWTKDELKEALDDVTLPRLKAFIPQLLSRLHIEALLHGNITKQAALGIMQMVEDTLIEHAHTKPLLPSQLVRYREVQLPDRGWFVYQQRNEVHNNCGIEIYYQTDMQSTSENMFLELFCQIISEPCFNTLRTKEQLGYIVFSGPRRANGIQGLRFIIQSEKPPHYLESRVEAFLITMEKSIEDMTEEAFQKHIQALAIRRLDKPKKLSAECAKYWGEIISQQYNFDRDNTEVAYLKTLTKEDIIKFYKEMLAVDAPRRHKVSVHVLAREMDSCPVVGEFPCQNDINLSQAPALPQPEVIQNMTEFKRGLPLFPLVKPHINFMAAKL
Nature of the test: recombinant IDE activation, cell-free – biochemical, fluorescence polarization, counter-screen for IDE activator project, dose response (AID 588681). Background: In fluorescence polarisation assays a small probe gives low polarisation when free and higher when bound to something large.

Test [7] concerns the target T4, Insulin-degrading enzyme. The test can be described thus: cellular IDE activation of Abeta substrate cleavage – fluorescence polarization, HEK cells, dose response (AID 588439). The format is functional, cell-based.
Test [8] concerns HEK293. Nature of the test: membrane integrity loss in HEK cells – cell-based, fluorescence, cytotoxicity control for IDE activator project, dose response (AID 588440).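 Further: cytotoxicity by LDH release measuring loss of membrane integrity.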 The format is functional. The conditions noted are these: Homo sapiens.
Test [9] concerns HEK293. The test can be described thus: optical interference in Abeta FP readout, dose response, artefact control for IDE activator project, biochemical, fluorescence polarization (AID 588442). The format is functional, cell-based. The conditions noted are these: Homo sapiens.

Structures are written as SMILES. Calls of active or inactive are those of the source.

What is called AC50 is the midpoint of the concentration-response curve, whichever way the signal moves. One may read the EC50 as the concentration at which the effect is half-maximal. With `Cc1c(C#N)c(NC(=O)CCl)n(Cc2cccs2)c1C`, the AC50 in [1] was 7.07 µM (active); in test [2] it was 48 µM (active); in the test with A-375 [3], > 35 µM (active); in the test on A-375 [4], > 35 µM (active). Moreover, the 50% effective concentration (EC50) on Protein RecA is 9.25 µM (active).
`O=C(Nc1cc2c(cc1Cl)OCCO2)c1ccco1`: the half-maximal activity concentration (AC50) in the test with A-375 [3] and with A-375 [4] was > 11 µM (active) in each case.
One may read the IC50 as the midpoint of a concentration-inhibition curve. As for `COc1ccc(N=Nc2nc3ccc(Br)cc3n2C)cc1`, the AC50 is 98.3 µM (active) in the test on HeLa and 145 µM (active) in [5]. Also, the EC50 at Insulin-degrading enzyme [6], on Insulin-degrading enzyme [7] and in the test with HEK293 [9] was > 54.7 µM (inactive) in each case. In addition, the IC50 with HEK293 [8] is > 89.2 µM (inactive).
